Counter-ions that a name gives are not always drawn.
Legend:
[1] = Inhibitory concentration against alpha-L-Fucosidase of human placenta
[2] = Inhibitory activity against alpha-L-fucosidase of bovine epididymis expressed as Ki
[3] = Inhibitory concentration against alpha-L-Fucosidase of bovine epididymis
[4] = Inhibitory activity against alpha-L-Fucosidase of bovine epididymis expressed as Ki
[5] = In vitro inhibition of alpha-L-fucosidase isolated from bovine kidney.
[6] = molecular target: alpha-L-fucosidase (Bacillus sp. K40T); test: Inhibitory activity against alpha-L-fucosidase of bacillus species (K40T) expressed as Ki

| Ki [1] | Structure (SMILES) | further results |
| --- | --- | --- |
| 0.68 µM | CC1C(NCc2ccccc2)C(O)[C@H](O)C1O (stereo partly drawn) [(R)-4-Benzylamino-5-methyl-cyclopentane-1,2,3-triol] | – |
| – | OC1CN(Cc2ccccc2)C[C@@H](O)C(O)C1O (stereo partly drawn) [(R)-1-Benzyl-azepane-3,4,5,6-tetraol] | Ki [2]: 23.4 µM |
| 4 µM | CC(=O)NCC1NCC(O)[C@@H](O)[C@@H]1O (stereo partly drawn) [N-((3R,4R)-3,4,5-Trihydroxy-piperidin-2-ylmethyl)-acetamide] | – |
| 2 µM | CC1NCC(O)C1O (stereo unspecified) [2-Methyl-pyrrolidine-3,4-diol] | – |
| 0.82 µM | CC1N=C(NN)[C@@H](O)[C@H](O)C1O (stereo partly drawn) [(4R,5R)-6-Hydrazino-2-methyl-2,3,4,5-tetrahydro-pyridine-3,4,5-triol] | – |
| 0.016 µM | CC1CN[C@@H](N)[C@H](O)C1O (stereo partly drawn) [(2R,3S)-2-Amino-5-methyl-piperidine-3,4-diol] | – |
| – | COC(=O)c1cc(C2NCC(O)C2O)oc1C (stereo unspecified) [5-(3,4-Dihydroxy-pyrrolidin-2-yl)-2-methyl-furan-3-carboxylic acid methyl ester] | IC50 [3]: 100 µM; Ki [4]: 6.5 µM |
| 2.8 µM | CCCCNC1N[C@@H](CO)C(O)[C@@H](O)[C@@H](CO)N1 (stereo partly drawn) [(6S,7R)-2-Butylamino-4,7-bis-hydroxymethyl-[1,3]diazepane-5,6-diol; trifluoroacetate] | – |
| – | C=CCOC1OC(CO)C(O)C(O)[C@H]1OC1SC(C)C(O)[C@@H](O)C1O (stereo partly drawn) [(R)-2-((R)-2-Allyloxy-4,5-dihydroxy-6-hydroxymethyl-tetrahydro-pyran-3-yloxy)-6-methyl-tetrahydro-thiopyran-3,4,5-triol] | Ki [5]: 30 µM; Ki [6]: 0.21 µM |
| 15 µM | CC1C(N)C(O)[C@H](O)C1O (stereo partly drawn) [(R)-4-Amino-5-methyl-cyclopentane-1,2,3-triol] | – |
| 0.01 µM | CC1NC(S(=O)(=O)O)C(O)C1O (stereo unspecified) [3,4-Dihydroxy-5-methyl-pyrrolidine-2-sulfonic acid] | – |
| 9 µM | C[C@H]1N[C@H](CO)[C@H](O)[C@@H]1O | – |
| 3.3 µM | CC1SC(Sc2ccc([N+](=O)[O-])cc2)C(O)[C@H](O)C1O (stereo partly drawn) [(R)-2-Methyl-6-(4-nitro-phenylsulfanyl)-tetrahydro-thiopyran-3,4,5-triol] | – |
| 1.4 µM | C[C@@H]1N[C@@H](CO)[C@H](O)[C@@H]1O | – |

Source: BindingDB's records for doi:10.1016/s0960-894x(01)00497-8 (Universidad De Sevilla, 2001)
